Measured values from US20260207621A1 (Vividion Therapeutics, Inc., priority 2022, published 2026).

The compounds below were run on Nrf2 (assay: Nrf2 antagonism assay: ARE luciferase reporter in KYSE-70 cells). Conditions: Homo sapiens, KYSE-70, KYSE-70 cells, positive Imax corresponds to Nrf2 antagonism, read-out: KYSE70 Cellular ARE Luciferase Imax (%).
Type: cell-based
Excerpt: NRF2 binds to a promoter region, antioxidant response element (ARE), to initiate expression of multiple genes. ARE luciferase reporter assays are used to test whether a ligand can activate or repress the expression of target genes using luciferase as a reporter gene.
KYSE-70 is an esophageal squamous cell carcinoma cell line with a Nrf2 mutation at amino acid position W24C. This mutation lowers the affinity between the E3 ligase that includes KEAP1 and Nrf2, resulting in a state in which the synthesis rate of new Nrf2 is faster than the E3's degradation rate of Nrf2, resulting in a “Nrf2 high” state. In KYSE-70 cells, genes are inserted directly after the ARE that trigger the expression of luciferase. Without a NRF2 antagonist in this modified KYSE70 cell line which has an inherently “NRF2 high state”, luciferase is expressed, and a signal is observed.
Nrf2 antagonists bind at C151 of KEAP1 and stabilize the E3 which results in an increased degradation rate of Nrf2. Increased degradation of Nrf2 results in less expression of luciferase, and therefore a less intense signal.
An IC50 is generated from the dose-response curve and an Imax. A positive Imax corresponds to Nrf2 antagonism. Imax >90% correlates with in vivo tumor grown inhibition. Compounds with Imax >50% were included in this description.

Going from C=CC(=O)N1CCOCC1c1cc(Cl)nc(-c2ccnnc2)c1 (single isomer, unassigned) [Compound 30, 1-(3-(2-chloro-6-(pyridazin-4-yl)pyridin-4-yl)morpholino)prop-2-en-1-one] to C=CC(=O)N1CCOCC1c1cc(Cl)nc(-c2ccn(C)c(=O)c2)c1 (single isomer, unassigned) [Compound 25, 4-(4-acryloylmorpholin-3-yl)-6-chloro-1′-methyl-[2,4′-bipyridin]-2′(1′H)-one], the Emax rises from 72% to 86%.

Compared with C=CC(=O)N1[C@H](c2cc(Cl)nc(-c3cc(C)ncn3)c2)COC[C@H]1C(F)F [Compound 201, 1-((3R,5S)-3-(2-chloro-6-(6-methylpyrimidin-4-yl)pyridin-4-y1)-5-(difluoromethyl)morpholino)prop-2-en-1-one], C=CC(=O)N1[C@H](c2cc(Cl)nc(-c3cc(N)ncn3)c2)COC[C@H]1C(F)F (single isomer, unassigned) [Compound 202] is higher in Emax: 93% for the first, 94% for the second.

Going from C=CC(=O)N1CCOCC1c1cc(Cl)nc(-c2nnn(C)n2)c1 (single isomer, unassigned) [Compound 23, 1-(3-(2-chloro-6-(2-methyl-2H-tetrazol-5-yl)pyridin-4-yl)morpholino)prop-2-en-1-one] to C=CC(=O)N1CCOCC1c1cc(Cl)nc(-c2ncnc(N)n2)c1 (single isomer, unassigned) [Compound 146, 1-(3-(2-(4-amino-1,3,5-triazin-2-yl)-6-chloropyridin-4-yl)morpholino)prop-2-en-1-one], the Emax rises from 55% to 71%.

Going from C=CC(=O)N1CC2(CC2)OCC1(C)c1cc(Cl)cc(-c2ncnc(N)n2)c1 (single isomer, unassigned) [Compound 160, 1-(6-(3-(4-amino-1,3,5-triazin-2-yl)-5-chlorophenyl)-6-methyl-4-oxa-7-azaspiro[2.5]octan-7-yl)prop-2-en-1-one] to C=CC(=O)N1CC2(CC2)OCC1c1cc(Cl)cc(-c2ncnc(N)n2)c1 (single isomer, unassigned) [Compound 153, 1-(6-(3-(4-amino-1,3,5-triazin-2-y1)-5-chlorophenyl)-4-oxa-7-azaspiro[2.5]octan-7-yl)prop-2-en-1-one], the Emax rises from 91% to 94%.

Compared with C=C(F)C(=O)N1CCOC[C@H]1c1cc(Cl)cc(-c2ncnc(N)n2)c1 (single isomer, unassigned) [Compound 297], C=CC(=O)N1CCOC[C@H]1c1cc(Cl)cc(-c2ncnc(N)n2)c1 (single isomer, unassigned) [Compound 55] is higher in Emax: 58% for the first, 93% for the second.

Going from C=CC(=O)N1CCOCC1c1cc(Cl)cc(-c2cnnc(OC)c2)c1 (single isomer, unassigned) [Compound 56, 1-(3-(3-chloro-5-(6-methoxypyridazin-4-yl)phenyl)morpholino)prop-2-en-1-one] to C=CC(=O)N1CCOC[C@H]1c1cc(Cl)cc(-c2cnnc(N)c2)c1 (single isomer, unassigned) [Compound 141], the Emax rises from 74% to 89%.

First: C=CC(=O)N1CCOCC1c1cc(Cl)nc(-c2cc(N)ncn2)c1 (single isomer, unassigned) [Compound 119, 1-(3-(2-(6-aminopyrimidin-4-yl)-6-chloropyridin-4-yl)morpholino)prop-2-en-1-one]
Second: C=CC(=O)N1C[C@@H](F)COC[C@H]1c1cc(Cl)nc(-c2cc(N)ncn2)c1 [Compound 198, 1-((3R,6R)-3-(2-(6-aminopyrimidin-4-yl)-6-chloropyridin-4-yl)-6-fluoro-1,4-oxazepan-4-yl)prop-2-en-1-one]
The Emax of the first is higher: 96% for the first, 93% for the second.

First: C=CC(=O)N1[C@H](c2cc(Cl)nc(-c3ccn4ccnc4c3)c2)COC[C@H]1C(F)F (single isomer, unassigned) [Compound 194]
Second: C=CC(=O)N1[C@H](C)COC[C@H]1c1cc(Cl)nc(-c2ccnc(C)n2)c1 (single isomer, unassigned) [Compound 142]
The Emax of the first is higher: 84% for the first, 81% for the second.

First: Nc1ncnc(-c2cc(Cl)cc([C@@H]3COCCN3C(=O)C=C3CC3)c2)n1 (single isomer, unassigned) [Compound 293]
Second: C=CC(=O)N1CCOCCC1c1cc(Cl)cc(-c2ncnc(N)n2)c1 (racemic) [Compound 152, 1-(5-(3-(4-amino-1,3,5-triazin-2-yl)-5-chlorophenyl)-1,4-oxazepan-4-yl)prop-2-en-1-one]
The Emax of the first is lower: 54% for the first, 78% for the second.

Going from C=CC(=O)N1CCOC[C@H]1c1cc(Cl)cc(-c2cnn(C3CC3)c2)c1 (single isomer, unassigned) [Compound 115] to C=CC(=O)N1CCOC[C@H]1c1cc(Cl)cc(-c2cnn(C)c2)c1 (single isomer, unassigned) [Compound 116], the Emax rises from 74% to 84%.

Going from C=CC(=O)N1[C@H](C)COC[C@H]1c1cc(Cl)cc(-c2ncccn2)c1 (single isomer, unassigned) [Compound 20] to C=CC(=O)N1[C@H](C)COC[C@H]1c1cc(Cl)cc(-c2ccnc(C)n2)c1 (single isomer, unassigned) [Compound 109], the Emax rises from 67% to 91%.

Compared with C=CC(=O)N1CCN(C(=O)CC#N)C[C@H]1c1cc(Cl)cc(-c2ccnc(NC(=O)CC#N)n2)c1 (single isomer, unassigned) [Compound 189], C=CC(=O)N1CCN(C(=O)CC#N)C[C@H]1c1cc(Cl)cc(-c2ccnc(N)n2)c1 (single isomer, unassigned) [Compound 186] is higher in Emax: 79% for the first, 83% for the second.

Compared with C=CC(=O)N1CCOCC1(C)c1cc(Cl)cc(-c2ccc(F)c(C(N)=O)c2)c1 (single isomer, unassigned) [Compound 114, 3′-(4-acryloyl-3-methylmorpholin-3-yl)-5′-chloro-4-fluoro-[1,1′-biphenyl]-3-carboxamide], C=CC(=O)N1[C@H](C)COC[C@H]1c1cc(Cl)cc(-c2ccc(F)c(C(N)=O)c2)c1 (single isomer, unassigned) [Compound 108] is lower in Emax: 87% for the first, 70% for the second.

Going from C=CC(=O)N1CCOCC1c1cc(Cl)cc(-c2nccc3[nH]ccc23)c1 (single isomer, unassigned) [Compound 111, 1-(3-(3-chloro-5-(1H-pyrrolo[3,2-c]pyridin-4-yl)phenyl)morpholino)prop-2-en-1-one] to C=CC(=O)N1CCOC[C@H]1c1cc(Cl)cc(-c2cn[nH]c2)c1 (single isomer, unassigned) [Compound 117], the Emax falls from 90% to 84%.

Compared with C=CC(=O)N1CCN(C(=O)C2CC2)C[C@H]1c1cc(Cl)cc(-c2ccc(F)c(C(N)=O)c2)c1 (single isomer, unassigned) [Compound 195], C=CC(=O)N1CCN(C(=O)C2CC2)C[C@H]1c1cc(Cl)cc(-c2ccnc(N)n2)c1 (single isomer, unassigned) [Compound 185] is higher in Emax: 90% for the first, 94% for the second.

Compared with C=CC(=O)N1CCN(C(=O)C2CC2)C[C@H]1c1cc(Cl)cc(-c2cc(N)ncn2)c1 (single isomer, unassigned) [Compound 197], C=CC(=O)N1CCN(C(=O)C2CC2)C[C@H]1c1cc(Cl)cc(-c2ncc(N)cn2)c1 (single isomer, unassigned) [Compound 200] is higher in Emax: 87% for the first, 91% for the second.

Compared with C=CC(=O)N1CCOCC1(C)c1cc(Cl)cc(-c2ccnc(N)n2)c1 (single isomer, unassigned) [Compound 113, 1-(3-(3-(2-aminopyrimidin-4-yl)-5-chlorophenyl)-3-methylmorpholino)prop-2-en-1-one], C=CC(=O)N1CCOCC1c1cc(Cl)cc(-c2cncc(C)n2)c1 (single isomer, unassigned) [Compound 59, 1-(3-(3-chloro-5-(6-methylpyrazin-2-yl)phenyl)morpholino)prop-2-en-1-one] is lower in Emax: 94% for the first, 81% for the second.

Compared with C=CC(=O)N1CCOCC1c1cc(Cl)cc(-c2ccn3cc(C)nc3c2)c1 (single isomer, unassigned) [Compound 57, 1-(3-(3-chloro-5-(2-methylimidazo[1,2-a]pyridin-7-yl)phenyl)morpholino)prop-2-en-1-one], C=CC(=O)N1CCOC[C@H]1c1cc(Cl)cc(-n2cc(C)cn2)c1 (single isomer, unassigned) [Compound 118] is lower in Emax: 84% for the first, 63% for the second.

First: C=CC(=O)N1CCOCC12COc1c(-c3ncnc(N)n3)cc(Cl)cc12 (single isomer, unassigned) [Compound 151, 1-(7-(4-amino-1,3,5-triazin-2-yl)-5-chloro-2H-spiro[benzofuran-33′-morpholino]-4′-yl)prop-2-en-1-one]
Second: C=CC(=O)N1CC2(CC2)OCC1c1cc(Cl)cc(-c2cc(N)ncn2)c1 (single isomer, unassigned) [Compound 140, 1-(6-(3-(6-aminopyrimidin-4-yl)-5-chlorophenyl)-4-oxa-7-azaspiro[2.5]octan-7-yl)prop-2-en-1-one]
The Emax of the first is higher: 81% for the first, 72% for the second.

Compared with C=CC(=O)N1[C@H](C)COC[C@H]1c1cc(Cl)cc(-c2ccn(C)c(=O)c2)c1 (single isomer, unassigned) [Compound 24], C=CC(=O)N1[C@H](C(N)=O)COC[C@H]1c1cc(Cl)nc(-c2ccc(F)c(C(N)=O)c2)c1 (single isomer, unassigned) [Compound 181] is lower in Emax: 73% for the first, 66% for the second.

First: C=CC(=O)N1CC(C)(C)OCC1c1cc(Cl)nc(-c2ccnc(N)n2)c1 (single isomer, unassigned) [Compound 99, 1-(5-(2-(2-aminopyrimidin-4-yl)-6-chloropyridin-4-y1)-2,2-dimethylmorpholino)prop-2-en-1-one]
Second: C=CC(=O)N1CCN(C(=O)C2CC2)C[C@H]1c1cc(Cl)cc(-c2nccc(N)n2)c1 (single isomer, unassigned) [Compound 196]
The Emax of the first is lower: 82% for the first, 90% for the second.
